Like-named read-outs stand apart in the source and are kept apart here.
Experiments:
[1] = levetiracetam blood plasma levels in aMCI subjects; format: in vivo; conditions: human, upon completion of treatment, read-out: mean levetiracetam blood plasma level
From the text: At the end of the first drug/placebo period 2 weeks after the Baseline Visit, the medical, neurological and psychiatric evaluations and cognitive testing are repeated. The subject is also clinically evaluated for suicidal ideation. Blood is drawn again to repeat the standard tests and to determine whether there are any changes related to drug treatment; the subject's blood levetiracetam level is also obtained. All medication dispensed at the Baseline Visit (drug or placebo) is collected and subject compliance with the medication regimen is assessed. The first fMRI session (with cognitive tests) is conducted on the same day, either immediately before or immediately after the clinical assessment. Subjects discontinue first period treatment at this visit.
At approximately 2 weeks after the Washout Visit (i.e., 2 weeks after starting the second treatment period), the medical, neurological and psychiatric evaluations and the cognitive testing are repeated. The subject is clinically evaluated for suicidal ideation. Blood is drawn again to repeat the standard tests and to determine whether there were any changes related to drug treatment; the subject's blood levetiracetam level is also obtained. All medication dispensed at the Washout Visit is collected and subject compliance with the medication regimen is assessed. The second fMRI session (with cognitive tests) is repeated on the same day, either immediately before or immediately after the clinical assessment.
Human – in the human studies described in Examples 3 and 4, a subject's levetiracetam blood plasma level was assessed at each visit. The subject's blood was drawn by the Johns Hopkins Phlebotomy Service and analysis of levetiracetam blood plasma levels was conducted either by the Johns Hopkins Core laboratory or by MedTox Laboratories in St. Paul, Minn. for the 62.5 mg BID cohort, the 125 mg BID cohort and the 250 mg BID cohort.

aMCI subjects = assay: Benton Visual Retention Test; format: in vivo, human; conditions: levetiracetam 125 mg twice a day for two weeks
From the text: Breaks are provided to the subject as needed.

somatostatin in DG hilus = assay: anti-SOM immunohistochemistry, hilar interneuron counts after chronic levetiracetam; format: in vivo, rat; conditions: levetiracetam 10 mg/kg/day, osmotic minipumps, four weeks, aged-impaired rats
Procedure: Under isoflurane anesthesia, memory-impaired aged rats were implanted subcutaneously in the intrascapular region with osmotic mini-pumps (ALZET, Durect Corporation, Cupertino, Calif.) with levetiracetam (10 mg/kg/day) or saline vehicle for four weeks prior to perfusion. Young rats, which served as controls, received either saline vehicle in mini-pumps or no implantation.
At the end of the 4-week treatment period, rats were anesthetized with isoflurane and perfused transcardiacally with 0.1 M phosphate buffer saline, followed by 4% paraformaldehyde in phosphate buffer. Brains were removed and post-fixed in paraformaldehyde overnight. […]
Tissue was labeled with anti-SOM antiserum (Santa Cruz Biotechnology; cat. no. SC7819-P) using an established immunoperoxidase protocol and tissue sections were processed concurrently to minimize inter-replication variability (Haberman et al., 2009). […] The secondary antibody was detected with avidin-biotin complex (ABC Elite; Vector Laboratories Inc., Burlingame, Calif.) and the avidin-biotin complex was visualized with nickel-enhanced diaminobenzadine (Vector Laboratories Inc., Burlingame, Calif.). […]
Interneuron quantification was performed using a Zeiss Axioplan 2 microscope equipped with a motorized stage. […] Neuron counts were analyzed as the total number of hilar interneurons per hippocampal section for each rat.

## CC[C@@H](C(N)=O)N1CCCC1=O [levetiracetam, (2S)-2-(2-oxopyrrolidin-1-yl)butanamide]
[1]; 125 mg BID cohort
  concentration at 2 weeks: 4.4 µg/mL
[1]; oral, 62.5 mg BID cohort
  concentration at 2 weeks: 2.88 µg/mL
[1]; oral, 250 mg BID cohort
  concentration at 2 weeks: 7.9 µg/mL
aMCI subjects
  performance in Benton Visual Retention Test: fail to rescue performance
Somatostatin in DG hilus
  levels of somatostatin in DG hilus (SOM-immunoreactive hilar neurons): restores
